This passage reports IC50 results from patent US10981932B2, “Macrocyclic indole derivatives” (Bayer Aktiengesellschaft, priority 2016, dated 2021).

Common to all, as to format: cell-based
Assay [1] has as its system MV-4-11. In words: Anti-proliferative effect (CellTiter-Glo, 72 h), MV-4-11. As to conditions: MV-4-11 cells, median, read-out: IC50 antiproliferation assay MV-4-11 [M] (median). Summed up: (§1)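 After seeding, one plate is read right away by CellTiter-Glo luminescence to fix time zero. The treated plates stay at 37 °C in humidified air for 72 h and are then measured with the same reagent and 10 min incubation.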

Assay [2] concerns NCI-H1703. Description: Anti-proliferative effect (CellTiter-Glo, 72 h), NCI-H1703. As to conditions: Homo sapiens, NCI-H1703 cells, median, read-out: IC50 antiproliferation assay NCI-H1703 [M] (median). Here is the method:
(§2) The impact of compounds on the proliferation of different cell lines was assessed using the CellTiter-Glo® Luminescent Cell Viability reagent from Promega (G7573). Of note, SUDHL10 and SUDHL5 (DLBCL), NCI-H929 (Multiple Myeloma), A2780 (ovarian carcinoma) as well as MV-4-11(AML) cells are sensitive to MCL-1 inhibition.
(§3) In parallel, cells were plated in a reference (day 0) plate for time zero determination.
(§4) Rim wells were excluded. The cells were incubated for 72 h hours in a humidified incubator at 37° C. The day 0 plate was measured by adding 30 μl/well of CTG solution (CellTiter-Glo® Luminescent Cell Viability reagent, Promega G7573) to time zero wells in the reference plate followed by a 10 minutes incubation and luminescence reading at 0.1 ms, using the PHERAstar FS microplate reader (BMG Labtech).
(§5) After 72 h incubation, the treated plates were measured in the same way as the day 0 plate mentioned above.

Assay [3] has as its system SK-MEL-2. Description: Anti-proliferative effect (CellTiter-Glo, 72 h), SK-MEL-2. As to conditions: Homo sapiens, SK-MEL-2 cells, median, read-out: IC50 antiproliferation assay SK-MEL-2 [M] (median). Here is the method:
Assessment of the Anti-Proliferative Effect of Compounds in Different Cell Lines
as §2, §3, §4, §5

The subject of assay [4] is OPM2. In words: Anti-proliferative effect (CellTiter-Glo, 72 h), OPM2. The note with it: OPM2 cells, median, read-out: IC50 antiproliferation assay OPM2 [M] (median). An outline of the steps: as §1

Where a name gives a salt, the structure may show the parent alone. Read-outs that look alike come from different tables or passages of the source.

For `CN1CCCn2c(C(=O)O)c(CCCOc3cccc4ccccc34)c3cccc(c32)-c2c(COc3ccc(N4CCN(S(=O)(=O)N(C)C)CC4)cc3)nn(C)c2C1` (single isomer, unassigned; enantiomer 1) [Example 1-15, (+)-11-({4-[4-(dimethylsulfamoyl)piperazin-1-yl]phenoxy}methyl)-7,9-dimethyl-1-[3-(naphthalen-1-yloxy)propyl]-4,5,6,7,8,9-hexahydropyrazolo[3′,4′:7,8][1,5]diazecino[9,10,1-hi]indole-2-carboxylic Acid (Enantiomer 1)], the IC50 in assay [1] (Homo sapiens, MV4-11, 72 h) is 3.52e-06 M; in assay [2] it was 1.1e-05 M; in assay [3], greater than 3.3e-05 M; in assay [4] it was 1.91e-06 M.

Take `CCc1c2c(nn1C)CN(C)CCCn1c(C(=O)O)c(CCCOc3cccc4ccccc34)c3ccc(C)c-2c31` (single isomer, unassigned; enantiomer 1) [Example 145, 11-Ethyl-7,10,12-trimethyl-1-[3-(1-naphthyloxy)propyl]-4,5,6,7,8,10-hexahydropyrazolo[3′,4′:7,8][1,5]diazecino[9,10,1-hi]indole-2-carboxylic acid-N-ethylethanamine Salt (Enantiomer 1)]: the IC50 worked out at 4.3e-06 M in assay [1] (Homo sapiens, MV4-11, 72 h); 6.53e-06 M in assay [2]; 1.17e-05 M in assay [3]; 3.22e-06 M in assay [4] (Homo sapiens, OPM-2, 72 h).

In the case of `CCc1c2c(nn1C)COCCCCn1c(C(=O)O)c(CCCOc3cccc4ccccc34)c3cccc-2c31` (single isomer, unassigned; enantiomer 1) [Example 148, 3-Ethyl-2-methyl-7-[3-(1-naphthyloxy)propyl]-2,10,11,12,13,15-hexahydropyrazolo[4′,3′:9,10][1,6]oxazacycloundecino[8,7,6-hi]indole-8-carboxylic acid-N-ethylethanamine Salt (Enantiomer 1)], the IC50 in assay [1] (Homo sapiens, MV4-11, 72 h) worked out at 9.73e-07 M; in assay [2] it was 9.36e-06 M; in assay [3] it was 2.67e-05 M; in assay [4] (Homo sapiens, OPM-2, 72 h), 2.74e-06 M.

As for `CCc1c2c(nn1C)COCCCCn1c(C(=O)O)c(CCCOc3cccc4ccccc34)c3ccc(C)c-2c31` (single isomer, unassigned; enantiomer 1) [Example 154, 3-Ethyl-2,4-dimethyl-7-[3-(1-naphthyloxy)propyl]-2,10,11,12,13,15-hexahydropyrazolo[4′,3′:9,10][1,6]oxazacycloundecino[8,7,6-hi]indole-8-carboxylic acid-N-ethylethanamine Salt (Enantiomer 1)], the IC50 worked out at 1.36e-06 M in assay [1] (Homo sapiens, MV4-11, 72 h); 6.84e-06 M in assay [2]; 1.84e-05 M in assay [3]; 2e-06 M in assay [4] (Homo sapiens, OPM-2, 72 h).

For `Cn1nc(COc2ccc(N3CCN(S(C)(=O)=O)CC3)cc2)c2c1COCCCCn1c(C(=O)O)c(CCCOc3cccc4ccccc34)c3cccc-2c31` (single isomer, unassigned; enantiomer 2) [Example 1-10, 1-methyl-3-({4-[4-(methylsulfonyl)piperazin-1-yl]phenoxy}methyl)-7-[3-(naphthalen-1-yloxy)propyl]-1,10,11,12,13,15-hexahydropyrazolo[4′,3′:9,10][1,6]oxazacycloundecino[8,7,6-hi]indole-8-carboxylic acid (enantiomer 2)], the IC50 in assay [1] was 2.29e-06 M; in assay [2] it was 5.52e-06 M; in assay [3], 1.12e-05 M; in assay [4] it was 2.81e-06 M.

As for `Cn1nc(COc2ccc(N3CCN(S(=O)(=O)C4CC4)CC3)cc2)c2c1COCCCCn1c(C(=O)O)c(CCCOc3cccc4ccccc34)c3cccc-2c31` (single isomer, unassigned; enantiomer 2) [Example 1-13, 3-({4-[4-(cyclopropylsulfonyl)piperazin-1-yl]phenoxy}methyl)-1-methyl-7-[3-(naphthalen-1-yloxy)propyl]-1,10,11,12,13,15-hexahydropyrazolo[4′,3′:9,10][1,6]oxazacycloundecino[8,7,6-hi]indole-8-carboxylic Acid (Enantiomer 2)], the IC50 in assay [1] came to 1.35e-06 M; in assay [2] it was 2.67e-06 M; in assay [3] it was 4.96e-06 M; in assay [4], 6.34e-07 M.
